Reference: publication PMC9070634 (Cell, 2021)

Experiments:
[1] = target: T1, BcPycTIR (Burkholderia cepacia, UniProt A0A0J5WTU0); test: HPLC of NAD+ cleavage; type: biochemical; settings: 500 uM NAD+, 500 nM protein, 250 nM cUMP as activator, 25 C, 1 h
T1 sequence (A0A0J5WTU0 1-303): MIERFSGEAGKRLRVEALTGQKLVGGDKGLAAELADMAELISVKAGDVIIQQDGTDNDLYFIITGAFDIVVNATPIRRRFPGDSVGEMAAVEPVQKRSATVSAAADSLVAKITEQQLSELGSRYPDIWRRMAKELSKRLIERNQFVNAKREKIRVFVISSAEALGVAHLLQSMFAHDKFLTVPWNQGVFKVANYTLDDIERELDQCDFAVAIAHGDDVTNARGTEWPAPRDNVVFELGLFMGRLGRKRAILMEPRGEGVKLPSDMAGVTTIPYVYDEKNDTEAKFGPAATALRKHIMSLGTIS

[2] = target: PaPycC (Pseudomonas aeruginosa, UniProt P0DV40); test: thin-layer chromatography with alpha-32P-UTP; type: biochemical; settings: labelled compound (trace); 10 mM MgCl2, 1 mM MnCl2, pH 8.5, 37 C
[3] = target: T2, BcPycC (Burkholderia cepacia, UniProt A0A0J5ZXG5); test: HPLC; type: biochemical; settings: 10 mM MgCl2, 1 mM MnCl2, 37 C
T2 sequence (A0A0J5ZXG5 1-229 limits assumed): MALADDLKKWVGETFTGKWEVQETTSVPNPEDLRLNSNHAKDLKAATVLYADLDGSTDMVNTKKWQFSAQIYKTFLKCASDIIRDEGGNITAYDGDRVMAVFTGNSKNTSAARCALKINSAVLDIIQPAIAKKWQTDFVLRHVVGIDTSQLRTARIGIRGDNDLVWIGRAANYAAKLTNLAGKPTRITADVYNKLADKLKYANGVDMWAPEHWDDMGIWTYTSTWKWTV

[4] = target: T1, BcPycTIR; test: fluorescence plate reader, initial rates; type: biochemical; settings: 500 uM substrate, 1 uM protein, cUMP as activator, pH 7.5, 100 mM KCl
[5] = target: the molecule itself; test: negative stain electron microscopy
[6] = target: the molecule itself; test: crystal structure

Sequence of PaPycC (P0DV40 whole entry): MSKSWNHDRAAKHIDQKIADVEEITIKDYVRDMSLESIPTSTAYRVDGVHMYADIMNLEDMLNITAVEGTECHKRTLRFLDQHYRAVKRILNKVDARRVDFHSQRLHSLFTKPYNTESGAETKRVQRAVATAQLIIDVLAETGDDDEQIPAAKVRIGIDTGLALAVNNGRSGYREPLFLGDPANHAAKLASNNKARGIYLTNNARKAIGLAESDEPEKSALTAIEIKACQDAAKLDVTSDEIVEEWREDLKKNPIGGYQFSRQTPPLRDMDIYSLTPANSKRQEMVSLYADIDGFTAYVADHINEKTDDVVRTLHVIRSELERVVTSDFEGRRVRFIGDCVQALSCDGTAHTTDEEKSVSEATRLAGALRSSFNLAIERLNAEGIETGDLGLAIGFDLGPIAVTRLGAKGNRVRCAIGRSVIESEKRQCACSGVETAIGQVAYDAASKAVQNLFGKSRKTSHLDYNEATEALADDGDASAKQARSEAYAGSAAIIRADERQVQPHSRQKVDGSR

## NC(=O)c1ccc[n+]([C@@H]2O[C@H](COP(=O)(O)OP(=O)(O)OC[C@H]3O[C@@H](n4cnc5c(N)ncnc54)[C@H](O)[C@@H]3O)[C@@H](O)[C@H]2O)c1 [NAD^+]
[1]
  HPLC of NAD+ cleavage: Incubation of BcPycTIR with cUMP triggered robust NADase activity

## O=c1ccn([C@@H]2O[C@H](COP(=O)(O)OP(=O)(O)OP(=O)(O)O)[C@@H](O)[C@H]2O)c(=O)[nH]1 [UTP]
[2]
  thin-layer chromatography with alpha-32P-UTP: demonstrated that PaPycC is an active uridylate cyclase

## O=c1ccn([C@@H]2O[C@@H]3COP(=O)(O)O[C@H]3[C@H]2O)c(=O)[nH]1 [cUMP]
[3]
  HPLC; MSMS against standard: MSMS fragmentation spectra of a cUMP standard (bottom) and the BcPycC cyclase product (top)

## NC(=O)c1ccc[n+]([C@@H]2O[C@H](COP(=O)(O)OP(=O)(O)OC[C@H]3O[C@@H](n4cnc5c4ncn4ccnc54)[C@H](O)[C@@H]3O)[C@@H](O)[C@H]2O)c1 [ε-NAD^+]
[4]
  fluorescence plate reader, initial rates: NAD^+ cleavage activity of BcPycTIR using the fluorescent substrate ε-NAD^+

B1: TIR-domain effector protein from Burkholderia cepacia LK29 (BcPycTIR) (enzyme)
chain: T1 sequence (A0A0J5WTU0 1-303)
[5]
  binding result: binds

B2: clade B uridylate cyclase from Burkholderia cepacia LK29 (BcPycC) (enzyme)
chain: ALADDLKKWVGETFTGKWEVQETTSVPNPEDLRLNSNHAKDLKAATVLYADLDGSTDMVNTKKWQFSAQIYKTFLKCASDIIRDEGGNITAYDGDRVMAVFTGNSKNTSAARCALKINSAVLDIIQPAIAKKWQTDFVLRHVVGIDTSQLRTARIGIRGDNDLVWIGRAANYAAKLTNLAGKPTRITADVYNKLADKLKYANGVDMWAPEHWDDMGIWTYTSTWKWTV
[6]
  binding result: binds
